This note sets out measurements from patent publication US20260317314A1, “NITROGEN-CONTAINING HETEROCYCLIC COMPOUND AND USE THEREOF” (JIANGSU DEYUAN PHARMACEUTICAL CO.,LTD., priority 2023, published 2026).

A short description of data set [1]: In vitro liver microsome metabolic stability study. Type of data set: in vitro ADME. Conditions: human liver microsomes 0.5 mg/mL, compound 1 μM, 37° C., up to 60 minutes; read-out: Intrinsic hepatic clearance CLint(liver). As to the method: Stock solution: 10 mM in DMSO.
Only 54 μL of microsomal working solution, 6 μL of NADPH regeneration system working solution, and 180 μL of stop solution were added to the blank plate.
LC-MS/MS analysis was performed.
On the technique in general: Liver microsomes are vesicles of endoplasmic reticulum, rich in cytochrome P450 enzymes.

The target in the next data set is T1, CYP3A4 (Homo sapiens, UniProt P08684).
T1 construct: Mixed human liver microsomes (HLM) were purchased from Corning Inc; tissue Corning Inc; host or cells: mixed human liver microsomes (HLM)
T1 sequence (P08684 whole entry): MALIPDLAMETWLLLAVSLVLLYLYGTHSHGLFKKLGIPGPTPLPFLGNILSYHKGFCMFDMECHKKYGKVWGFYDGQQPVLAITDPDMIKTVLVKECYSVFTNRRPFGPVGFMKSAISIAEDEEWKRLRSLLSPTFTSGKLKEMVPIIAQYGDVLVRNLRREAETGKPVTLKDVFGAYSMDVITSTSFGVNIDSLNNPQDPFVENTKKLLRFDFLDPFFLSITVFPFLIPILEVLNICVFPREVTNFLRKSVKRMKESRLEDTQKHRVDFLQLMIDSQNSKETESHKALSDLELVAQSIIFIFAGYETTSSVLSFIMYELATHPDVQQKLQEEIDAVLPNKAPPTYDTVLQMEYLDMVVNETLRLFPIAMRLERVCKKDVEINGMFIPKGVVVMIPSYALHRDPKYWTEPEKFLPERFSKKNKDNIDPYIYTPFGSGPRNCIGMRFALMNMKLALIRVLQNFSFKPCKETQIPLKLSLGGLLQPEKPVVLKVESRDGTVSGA
The data set is described as follows: Human liver microsome CYP inhibition assay, CYP3A4. Type of data set: in vitro ADME. Conditions: role: inhibitor; human liver microsomes, probe substrate; read-out: CYP3A4 half maximal inhibitory concentration IC50. As to the method:
Experimental objective: To evaluate the inhibitory activity of the test substance on human liver microsomal cytochrome P450 isoenzymes (CYP1A2, CYP2C9, CYP2C19, CYP2D6, CYP3A4) using a 5-in-1 probe substrate for CYP isoenzymes.
Mixed human liver microsomes (HLM) were purchased from Corning Inc. (Steuben, New York, USA) and stored at temperatures below −70° C. prior to use.
The working solution of the test substance, which had been diluted to a series of concentrations, was added to an incubation system containing human liver microsomes, probe substrates, and auxiliary factors of the circulatory system. A control containing solvent but no test substance served as an enzyme activity control (100%). The concentration of metabolites produced from probe substrates in the samples was determined using Liquid Chromatography-Tandem Mass Spectrometry (LC-MS/MS) method. Non-linear regression analysis of the average percentage activity of the test substance against its concentration was conducted using SigmaPlot (V.11). The IC50 values were calculated using a three-parameter or four-parameter inverse log equation.

For the compound `CCC(=O)N[C@H]1CCOc2c(-c3ccc4c(c3)CCC(=O)N4C)cncc21` (single isomer, unassigned) [Compound 037], the CLint scaled at 1 µM in data set [1] was less than 8.6 mL/min/kg. At CYP3A4, the IC50 was greater than 50 µM.
